Results from ChEMBL document CHEMBL3608265, “Synthesis and inhibitory activity of substrate-analog fructosyl peptide oxidase inhibitors” (Bioorg Med Chem Lett, 2015).
Activity calls are given as the source filed them. No cut-off for these calls is given here.

Assays:
[1] = Inhibition of Coniochaeta sp. FPOX-C CFP-T7 mutant using Fru-ValHis as substrate by Dixon plot analysis
Coniochaeta [2] = test: Competitive inhibition of Coniochaeta sp. FPOX-C CFP-T7 mutant using Fru-ValHis as substrate at 250 to 1250 uM by Lineweaver-Burk plot analysis
Coniochaeta [3] = test: Competitive inhibition of Coniochaeta sp. FPOX-C CFP-T7 mutant using Fru-ValHis as substrate at 20 to 100 uM by Lineweaver-Burk plot analysis
Coniochaeta [4] = test: Competitive inhibition of Coniochaeta sp. FPOX-C CFP-T7 mutant using Fru-ValHis as substrate at 5 to 25 uM by Lineweaver-Burk plot analysis

With `N[C@@H](CCCCSC[C@@]1(O)OC[C@@H](O)[C@@H](O)[C@@H]1O)C(=O)O` the Ki [1] was 782 µM and the inhibition (Coniochaeta [2]) was “Active”.
For `CC(C)[C@H](SC[C@@]1(O)OC[C@@H](O)[C@@H](O)[C@@H]1O)C(=O)N[C@@H](Cc1c[nH]cn1)C(=O)O`, the inhibition (Coniochaeta [3]) was “Active” and the Ki [1] was 66.8 µM.
For `CC(C)[C@H](SC[C@@]1(O)OC[C@@H](O)[C@@H](O)[C@@H]1O)C(=O)O`, the inhibition (Coniochaeta [4]) was “Active” and the Ki [1] was 11.1 µM.
